# Measurements from ChEMBL document CHEMBL5505987 (Eur J Med Chem, 2024).
# Counter-ions that a name gives are not always drawn.
# Key:
# Type in all cases: functional, cell-based
# A549 = experiment: Cytotoxicity against human A549 cells assessed as cell viability by MTT assay
# MCF7 = experiment: Cytotoxicity against human MCF7 cells assessed as cell viability by MTT assay
# MDA-MB-231 = experiment: Cytotoxicity against human MDA-MB-231 cells assessed as cell viability by MTT assay
# HeLa = experiment: Cytotoxicity against human HeLa cells assessed as cell viability by MTT assay
# 4T1 = experiment: Cytotoxicity against mouse 4T1 cells assessed as cell viability by MTT assay
Compound,IC50 (A549) [µM],IC50 (MCF7) [µM],IC50 (MDA-MB-231) [µM],IC50 (HeLa) [µM],IC50 (4T1) [µM]
O=C1C[C@@H](c2ccccc2)Oc2cc(O)c([C@@H](/C=C/C[C@@H](O)CCc3ccccc3)c3ccccc3)c(O)c21,3.27,4.16,1.48,0.67,
O=C1C[C@H](c2ccccc2)Oc2cc(O)c([C@@H](/C=C/C[C@@H](O)CCc3ccccc3)c3ccccc3)c(O)c21,5.27,8.5,4.05,2,
COc1cccc2c1C(=O)c1c(O)c3c(c(O)c1C2=O)C[C@@](O)(C(=O)CO)C[C@@H]3O[C@H]1C[C@H](N)[C@H](O)[C@H](C)O1 [DOXORUBICIN HYDROCHLORIDE],,,,,2.4
